Results: patent US4777250A, “Chymotrypsin model” (Northwestern University, priority 1986, dated 1988)

What was measured:
[1] = Hydrolysis of esters by artificial chymotrypsin (Lineweaver-Burk); assay type: biochemical; settings: substrate m-t-butylphenyl acetate
Description: The chymotrypsin model was examined for its catalytic activity in ester hydrolysis.
In FIG. 2 plot A represents the hydrolysis of p-nitrophenyl acetate by chymotrypsin and plot B represents the hydrolysis of m-t-butylphenyl acetate by the miniature organic model of chymotrypsin. [EA ]=1×10^-5 M; [EB ]=3×10^-5 M.
FIG. 3 depicts the relative stability of both β-benzyme/m-t-butylphenyl acetate and α-chymotrypsin/p-nitrophenyl acetate (O) at elevated temperatures. The real enzyme has 245 amino acids whose conformation can be changed by disrupting hydrogen bonds by elevated temperature. In contrast, the artificial chymotrypsin has no amino acids. Abbreviations are explained by the equation [formula] The stability was obtained by determining the catalytic rate constant at various temperatures at pH 8.0 for chymotrypsin, using 400 nm with a Varian 200 spectrophotometer. β-benzyme activity for the artificial enzyme was determned at its optimum pH 10.7 and 288 nm.

[2] = system: CC(=O)Oc1ccc([N+](=O)[O-])cc1; experiment: purified protein, by the assay type; settings: other: pH 8.0 (optimum pH), substrate p-nitrophenyl acetate, error limit ± 10%

| Km ([1]; pH 10.7 (optimum pH), error limit ± 10%) [µM] | kcat/Km ([1]; pH 10.7) [M⁻¹ s⁻¹] | Compound | kcat ([1]; pH 10.7 (optimum pH), error limit ± 5%) [s⁻¹] | Km [2] [µM] | kcat [2] [s⁻¹] | kcat/Km [2] [M⁻¹ s⁻¹] |
| --- | --- | --- | --- | --- | --- | --- |
| 133 | 210 | CC(=O)Oc1cccc(C(C)(C)C)c1 [m-t-butylphenyl acetate] | 0.028 | – | – | – |
| – | – | chymotrypsin (real enzyme, α-chymotrypsin) (Bos taurus) | – | 40 | 0.011 | 275 |
